Data taken from ChEMBL document CHEMBL1146427, “Identification of the novel antimicrobial fatty acid (5Z,9Z)-14-methyl-5,9-pentadecadienoic acid in Eunicea succinea” (J Nat Prod, 1997).
Values after ≈ are worked out from the molar mass of the structure shown.

Assays:
Staphylococcus aureus = assay: Antibacterial activity against Staphylococcus aureus ATCC 25923 after overnight incubation; format: functional, organism-based
Enterococcus faecalis = assay: Antibacterial activity against Streptococcus faecalis group D ATCC 29212 after overnight incubation; format: functional, organism-based
Pseudomonas aeruginosa = assay: Antibacterial activity against Pseudomonas aeruginosa ATCC 27853 after overnight incubation; format: functional
Escherichia coli = assay: Antibacterial activity against Escherichia coli ATCC 25922 after overnight incubation; format: functional

IC50 (Staphylococcus aureus): 36 µg/mL (≈ 143 µM)
MIC (Staphylococcus aureus): 240 µM (≈ 60.6 µg/mL)
IC50 (Enterococcus faecalis): < 10 µg/mL
MIC (Enterococcus faecalis): 160 µM (≈ 40.4 µg/mL)
MIC (Pseudomonas aeruginosa): > 100 µg/mL
MIC (Escherichia coli): > 100 µg/mL
SMILES: CC(C)CCC/C=C\CC/C=C\CCCC(=O)O
